{"source": "patent US12303592B2", "about": "“Formulations for parenteral delivery of compounds and uses thereof” (Wyeth, LLC, priority 2006, dated 2025)", "key": {"[1]": {"assay": "Buffer compatibility: stability of MNTX in pH 7 phosphate or glycine solution (Tables 9, 10), HPLC Method A", "type": "physicochemical", "description": "Evaluation of phosphate buffers solution stability. We have also assessed different buffers to determine compatibility and whether various conditions would convey further stability to methylnaltrexone solutions. Table 9 and Table 10 show results (HPLC Method A) of total degradant formation over time in methylnaltrexone solutions prepared in phosphate solution (Table 9), and glycine solution (Table 10). We found at pH 7, glycine provides better stability characteristics to samples than phosphate."}, "[2]": {"assay": "Effect of 1 mM sodium tungstate on subcutaneous formulation (Table 16), HPLC Method A; for Ring Contraction Degradant: key: BRL=below recordable limit", "type": "physicochemical"}, "[3]": {"settings": "white crystalline powder from Mallinckrodt; cited from earlier work"}}, "data": [{"smiles": "C[N+]1(CC2CC2)CC[C@]23c4c5ccc(O)c4O[C@H]2C(=O)CC[C@@]3(O)[C@H]1C5", "note": "(stereo partly shown) [MNTX, methylnaltrexone bromide]", "values": [{"measurement": "Appearance and Description", "setting": "[1]; pH 7, 0.02M Glycine Solution, 40° C., r24 0 time, r26 1 day, r28 2 days, r30 6 days, r32 9 days, r34 14 days, r36 21 days", "value": "Clear, colorless"}, {"measurement": "Appearance and Description", "setting": "[1]; pH 7, 0.02M Glycine Solution, Room Temperature, r8 0 time, r11 1 day, r13 2 days, r15 6 days, r18 9 days, r20 14 days, r22 21 days", "value": "Clear, colorless"}, {"measurement": "Appearance and Description", "setting": "[1]; pH 7, 0.02M Phosphate Solution, 40° C., r22 0 time, r24 1 day, r26 2 days, r28 6 days, r30 9 days, r32 14 days, r35 21 days, elapsed 0 time", "value": "Clear, colorless"}, {"measurement": "Appearance and Description", "setting": "[1]; pH 7, 0.02M Phosphate Solution, 60° C., r38 0 time, r40 1 day, r42 2 days, r44 6 days, r46 9 days, r48 14 days, r50 21 days, elapsed 0 time", "value": "Clear, colorless"}, {"measurement": "Appearance and Description", "setting": "[1]; pH 7, 0.02M Phosphate Solution, 60° C., r38 0 time, r40 1 day, r42 2 days, r44 6 days, r46 9 days, r48 14 days, r50 21 days, elapsed 9 days", "value": "Clear, yellow"}, {"measurement": "Appearance and Description", "setting": "[1]; pH 7, 0.02M Phosphate Solution, Room Temperature, r8 0 time, r10 1 day, r12 2 days, r14 6 days, r16 9 days, r18 14 days, r20 21 days", "value": "Clear, colorless"}, {"measurement": "7-Dihydroxy MNTX", "setting": "[2]; 40° C., 1 hour", "value": "BRL"}, {"measurement": "O-Methyl MNTX", "setting": "[2]; 40° C., 1 hour", "value": 0.12}, {"measurement": "Ring Contraction Degradant", "setting": "[2]; 40° C., 1 hour", "value": "BRL"}, {"measurement": "Total", "setting": "[2]; 40° C., 1 hour", "value": 0.12}, {"measurement": "7-Dihydroxy MNTX", "setting": "[2]; 40° C., 2 hours", "value": 0.02}, {"measurement": "O-Methyl MNTX", "setting": "[2]; 40° C., 2 hours", "value": 0.12}, {"measurement": "Ring Contraction Degradant", "setting": "[2]; 40° C., 2 hours", "value": "BRL"}, {"measurement": "Total", "setting": "[2]; 40° C., 2 hours", "value": 0.14}, {"measurement": "7-Dihydroxy MNTX", "setting": "[2]; 40° C., 3 hours", "value": 0.02}, {"measurement": "O-Methyl MNTX", "setting": "[2]; 40° C., 3 hours", "value": 0.12}, {"measurement": "Ring Contraction Degradant", "setting": "[2]; 40° C., 3 hours", "value": "BRL"}, {"measurement": "Total", "setting": "[2]; 40° C., 3 hours", "value": 0.14}, {"measurement": "7-Dihydroxy MNTX", "setting": "[2]; 40° C., 4 hours", "value": 0.02}, {"measurement": "O-Methyl MNTX", "setting": "[2]; 40° C., 4 hours", "value": 0.12}, {"measurement": "Ring Contraction Degradant", "setting": "[2]; 40° C., 4 hours", "value": "BRL"}, {"measurement": "Total", "setting": "[2]; 40° C., 4 hours", "value": 0.14}, {"measurement": "7-Dihydroxy MNTX", "setting": "[2]; 40° C., 5 hours", "value": 0.03}, {"measurement": "O-Methyl MNTX", "setting": "[2]; 40° C., 5 hours", "value": 0.12}, {"measurement": "Ring Contraction Degradant", "setting": "[2]; 40° C., 5 hours", "value": "BRL"}, {"measurement": "Total", "setting": "[2]; 40° C., 5 hours", "value": 0.15}, {"measurement": "7-Dihydroxy MNTX", "setting": "[2]; 40° C., Initial", "value": "BRL"}, {"measurement": "O-Methyl MNTX", "setting": "[2]; 40° C., Initial", "value": 0.12}, {"measurement": "Ring Contraction Degradant", "setting": "[2]; 40° C., Initial", "value": "BRL"}, {"measurement": "Total", "setting": "[2]; 40° C., Initial", "value": 0.12}, {"measurement": "7-Dihydroxy MNTX", "setting": "[2]; Room Temperature, 1 hour", "value": "BRL"}, {"measurement": "O-Methyl MNTX", "setting": "[2]; Room Temperature, 1 hour", "value": 0.12}, {"measurement": "Ring Contraction Degradant", "setting": "[2]; Room Temperature, 1 hour", "value": "BRL"}, {"measurement": "Total", "setting": "[2]; Room Temperature, 1 hour", "value": 0.12}, {"measurement": "7-Dihydroxy MNTX", "setting": "[2]; Room Temperature, 2 hours", "value": 0.02}, {"measurement": "O-Methyl MNTX", "setting": "[2]; Room Temperature, 2 hours", "value": 0.12}, {"measurement": "Ring Contraction Degradant", "setting": "[2]; Room Temperature, 2 hours", "value": "BRL"}, {"measurement": "Total", "setting": "[2]; Room Temperature, 2 hours", "value": 0.14}, {"measurement": "7-Dihydroxy MNTX", "setting": "[2]; Room Temperature, 3 hours", "value": 0.02}, {"measurement": "O-Methyl MNTX", "setting": "[2]; Room Temperature, 3 hours", "value": 0.12}, {"measurement": "Ring Contraction Degradant", "setting": "[2]; Room Temperature, 3 hours", "value": "BRL"}, {"measurement": "Total", "setting": "[2]; Room Temperature, 3 hours", "value": 0.14}, {"measurement": "7-Dihydroxy MNTX", "setting": "[2]; Room Temperature, 4 hours", "value": 0.02}, {"measurement": "O-Methyl MNTX", "setting": "[2]; Room Temperature, 4 hours", "value": 0.12}, {"measurement": "Ring Contraction Degradant", "setting": "[2]; Room Temperature, 4 hours", "value": "BRL"}, {"measurement": "Total", "setting": "[2]; Room Temperature, 4 hours", "value": 0.14}, {"measurement": "7-Dihydroxy MNTX", "setting": "[2]; Room Temperature, 5 hours", "value": 0.02}, {"measurement": "O-Methyl MNTX", "setting": "[2]; Room Temperature, 5 hours", "value": 0.12}, {"measurement": "Ring Contraction Degradant", "setting": "[2]; Room Temperature, 5 hours", "value": "BRL"}, {"measurement": "Total", "setting": "[2]; Room Temperature, 5 hours", "value": 0.14}, {"measurement": "7-Dihydroxy MNTX", "setting": "[2]; Room Temperature, Initial", "value": "BRL"}, {"measurement": "O-Methyl MNTX", "setting": "[2]; Room Temperature, Initial", "value": 0.12}, {"measurement": "Ring Contraction Degradant", "setting": "[2]; Room Temperature, Initial", "value": "BRL"}, {"measurement": "Total", "setting": "[2]; Room Temperature, Initial", "value": 0.12}, {"measurement": "solubility in water", "setting": "[3]", "value": "freely soluble in water"}]}]}
